Reference: PMC12114375, “Discovery of Hydrazineyl Amide Derivative of Pseudolaric Acid B for Reprogramming Tumor-Associated Macrophages Against Tumor Growth” (Molecules, 2025)

Key:
Assay type in all cases: cell-based, mouse
[1] = system: NOS2 mRNA expression in RAW 264.7 cells; assay: qRT-PCR of NOS2 mRNA in IL-4/IL-13-stimulated RAW 264.7 cells; conditions: 12 h, mean ± SD; for NOS2 mRNA Relative Expression (%): IL-4/IL-13 (20 ng/mL) plus compound 10 μM; for NOS2 mRNA Relative Expression (%) / activity at 10 µM: stimulated control = 100%; for activity at 10 µM: RAW264.7, IL-4/IL-13 (20 ng/mL) plus compound 10 μM
From the text: (§1) We first investigated the impacts of a series of commercially available natural pseudolaric acids or their O-pyranosides (Figure 1) on the pro-tumoral phenotype of TAMs, which play a critical role in anti-tumor immune response modulation. […] In contrast, M1-biased macrophages combat tumor growth and bacterial infections by expressing inducible nitric oxide synthase 2 (NOS2), which catalyzes the production of nitric oxide (NO). Recognizing the pivotal roles of ARG1 and NOS2, we utilized these molecules as key biomarkers and effectors for assessing macrophage immune function. In our experiments, the mouse monocyte–macrophage leukemia cell line RAW 264.7 was induced with IL-4/IL-13 to acquire an M2-like pro-tumoral phenotype. Concurrently, the cells were treated with the pseudolaric acid-related natural products 1–7 at a concentration of 10 μM for 12 h. Additionally, PLX3397 was used as a positive control at a concentration of 0.5 μM. […] As shown in Table 1 and Figure S1A, pseudolaric acid B (1), its deacetoxyl analogue 2 (pseudolaric acid C), and β-D-glucoside 7 substantially attenuated the upregulation of ARG1 mRNA expression induced by IL-4/IL-13, with statistically significant effects. In contrast, bis-carboxylic acids analogs 4 (pseudolaric acid C2) and 6 (demethoxydeacetoxypseudolaric acid B) have no significant impact on ARG1 mRNA expression.
(§2) With these carboxylic acid-modified derivatives in hand, we investigated their impact at 10 μM on ARG1 and NOS2 mRNA expression in RAW 264.7 cells pre-stimulated with IL-4/IL-13 to evaluate the effects on the pro-tumor phenotype of macrophages. […] Further removal of one hydroxyl from the glycerol moiety 15 further enhanced the inhibitory effect on ARG1 expression but had no significant impact on NOS2 expression.
(§3) Total RNA was isolated from cells using the EZ-press RNA Purification Kit (EZBioscience, Suzhou, China) and subjected to reverse transcription with the 5×HiScript II qRT SuperMix II (Vazyme, Nanjing, China). PCR was performed with the 2×ChamQ Universal SYBR qPCR Master Mix (Vazyme, Nanjing, China). All primers for qRT-PCR are described in Table S1. The 2^−∆∆Ct method was utilized to calculate the fold change in gene expression, with the expression levels in the stimulated group set as the baseline for normalization.

[2] = system: ARG1 mRNA expression in RAW 264.7 cells; assay: qRT-PCR of ARG1 mRNA in IL-4/IL-13-stimulated RAW 264.7 cells; conditions: 12 h, mean ± SD; for ARG1 mRNA Relative Expression (%): IL-4/IL-13 (20 ng/mL) plus compound 10 μM; for ARG1 mRNA Relative Expression (%) / mrna remaining at 10 µM: stimulated control = 100%; for mrna remaining at 10 µM: RAW264.7, IL-4/IL-13 (20 ng/mL) plus compound 10 μM
From the text: as §1, §2, §3

Raw264.7 cells = assay: Cell viability (CCK-8) of RAW264.7 cells; conditions: IL-4/IL-13 plus compound 10 μM, 12 h
Description: Cells were seeded in 96-well tissue culture plates. On the next day, cells were exposed to various concentrations of compounds and further cultured for the indicated period. Finally, cell proliferation was determined by using the Cell Counting Kit (CCK-8) (Dojindo, Kumamoto, Japan) assay.
Figure S2. Effects of natural pseudolaric acids 1-4, 6 and their O-pyranosides 5, 7 as well as the derivatives 8-18 o f 1 on Raw264.7 cell viability. Raw264.7 cells were treated with IL-4/IL-13 alone or combined with indicated compounds (10 μM) for 12 h. After incubation, the cell viability was determined using a cell counting kit (CCK-8, Dojindo, Japan) assay.
(1 picture or pasted object on this page, not shown here)

[3] = Mus musculus, read-out: NOS2 mRNA Relative Expression (%)
[4] = Mus musculus, read-out: ARG1 mRNA Relative Expression (%)

`FC(F)(F)c1ccc(CNc2ccc(Cc3c[nH]c4ncc(Cl)cc34)cn2)cn1` [PLX3397, reference compound] gave an activity at 0.5 µM ([1]; Mus musculus, RAW264.7, IL-4/IL-13 (20 ng/mL) plus positive control 0.5 μM, read-out: NOS2 mRNA Relative Expression (%)) of 193 ± 10.2% and a mrna remaining at 0.5 µM ([2]; Mus musculus, RAW264.7, IL-4/IL-13 (20 ng/mL) plus positive control 0.5 μM, read-out: ARG1 mRNA Relative Expression (%)) of 3.2 ± 2.4%.

With “(2R,3S,4S,5R,6R)-6-(((2E,4E)-5-((3R,4S,4aS,9aR)-4a-Acetoxy-7-(methoxycarbonyl)-3-methyl-1-oxo-3,4,4a,5,6,9-hexahydro-1H-4,9a-ethanocyclohepta[c]pyran-3-yl)-2-methylpenta-2,4-dienoyl)oxy)tetrahydro-2H-pyran-2,3,4,5-tetrayl tetraacetate [compound 18]” the “NOS2 mRNA Relative Expression (%)” value [1] was 58.7 ± 4.5% and the “ARG1 mRNA Relative Expression (%)” value [2] was 42.6 ± 30.2%.

`COC(=O)C1=CC[C@@]23CC[C@@H]([C@@](C)(/C=C/C=C(\C)C(=O)OC4O[C@H](COC(C)=O)[C@@H](OC(C)=O)C(OC(C)=O)[C@H]4OC(C)=O)OC2=O)[C@@]3(OC(C)=O)CC1` (stereo partly drawn) [compound 16, (3R,5R,6R)-2-(((2E,4E)-5-((3R,4S,4aS,9aR)-4a-Acetoxy-7-(methoxycarbonyl)-3-methyl-1-oxo-3,4,4a,5,6,9-hexahydro-1H-4,9a-ethanocyclohepta[c]pyran-3-yl)-2-methylpenta-2,4-dienoyl)oxy)-6-(acetoxymethyl)tetrahydro-2H-pyran-3,4,5-triyl triacetate] was tested, and the activity at 10 µM [1, 3] was 95.2 ± 23% and the mrna remaining at 10 µM [2, 4] was 80 ± 27.5%.

`COC(=O)C1=CC[C@@]23CC[C@@H]([C@@](C)(/C=C/C=C(\C)C(=O)NCC(F)(F)F)OC2=O)[C@@]3(OC(C)=O)CC1` [compound 9, Methyl (3R,4S,4aS,9aR)-4a-acetoxy-3-methyl-3-((1E,3E)-4-methyl-5-oxo-5-((2,2,2-trifluoroethyl)amino)penta-1,3-dien-1-yl)-1-oxo-3,4,4a,5,6,9-hexahydro-1H-4,9a-ethanocyclohepta[c]pyran-7-carboxylate] was tested, and the “NOS2 mRNA Relative Expression (%)” value [1] was 148.7 ± 14.1%, the activity at 10 µM [1, 3] was 149% and the mrna remaining at 10 µM [2, 4] was 7.4%.

With `COC(=O)C1=CC[C@@]23CC[C@@H]([C@@](C)(/C=C/C=C(\C)C(=O)NCC(C)O)OC2=O)[C@@]3(OC(C)=O)CC1` (stereo partly drawn) [compound 10, Methyl(3R,4S,4aS,9aR)-4a-acetoxy-3-((1E,3E)-5-((2-hydroxypropyl)amino)-4-methyl-5-oxopenta-1,3-dien-1-yl)-3-methyl-1-oxo-3,4,4a,5,6,9-hexahydro-1H-4,9a-ethanocyclohepta[c]pyran-7-carboxylate] the activity at 10 µM [1, 3] was 103 ± 7.2% and the mrna remaining at 10 µM [2, 4] was 7.5%.

With `CC(=O)O[C@]12CCC(C)=CC[C@]13CC[C@H]2[C@@](C)(/C=C/C=C(\C)C(=O)O)OC3=O` [compound 3, pseudolaric acid A, reference compound] the activity at 10 µM [1, 3] was 297 ± 6.8% and the mrna remaining at 10 µM [2, 4] was 343 ± 27.9%.

`COC(=O)C1=CC[C@@]23CC[C@@H]([C@@](C)(/C=C/C=C(\C)C(=O)NC(CO)(CO)CO)OC2=O)[C@@]3(OC(C)=O)CC1` [compound 14, Methyl(3R,4S,4aS,9aR)-4a-acetoxy-3-((1E,3E)-5-((1,3-dihydroxy-2-(hydroxymethyl)propan-2-yl)amino)-4-methyl-5-oxopenta-1,3-dien-1-yl)-3-methyl-1-oxo-3,4,4a,5,6,9-hexahydro-1H-4,9a-ethanocyclohepta[c]pyran-7-carboxylate] showed an activity at 10 µM [1, 3] of 136 ± 8% and a mrna remaining at 10 µM [2, 4] of 42.2 ± 9.5%.

`COC(=O)C1=CC[C@@]23CC[C@@H]([C@@](C)(/C=C/C=C(\C)C(=O)O[C@H]4OC[C@@H](OC(C)=O)[C@H](OC(C)=O)[C@H]4OC(C)=O)OC2=O)[C@@]3(OC(C)=O)CC1` [compound 17, (2R,3R,4S,5R)-2-(((2E,4E)-5-((3R,4S,4aS,9aR)-4a-Acetoxy-7-(methoxycarbonyl)-3-methyl-1-oxo-3,4,4a,5,6,9-hexahydro-1H-4,9a-ethanocyclohepta[c]pyran-3-yl)-2-methylpenta-2,4-dienoyl)oxy)tetrahydro-2H-pyran-3,4,5-triyl triacetate] gave an activity at 10 µM [1, 3] of 91.3 ± 6.9% and a mrna remaining at 10 µM [2, 4] of 32.3 ± 19.2%.

Work on `CC(=O)O[C@]12CCC(C(=O)O)=CC[C@]13CC[C@H]2[C@@](C)(/C=C/C=C(\C)C(=O)O)OC3=O` [compound 4, pseudolaric acid C2, reference compound] yielded an activity at 10 µM [1, 3] of 131 ± 14.5% and a mrna remaining at 10 µM [2, 4] of 87.4 ± 25.4%.

For `COC(=O)C1=CC[C@@]23CC[C@@H]([C@@](C)(/C=C/C=C(\C)C(=O)O)OC2=O)[C@@]3(O)CC1` [compound 2, pseudolaric acid C, reference compound], the activity at 10 µM [1, 3] was 80.1 ± 15.6% and the mrna remaining at 10 µM [2, 4] was 17.3 ± 9.1%.

With `COC(=O)C1=CC[C@@]23CC[C@@H]([C@@](C)(/C=C/C=C(\C)C(=O)NCCN(CCO)CCO)OC2=O)[C@@]3(OC(C)=O)CC1` [compound 13, Methyl(3R,4S,4aS,9aR)-4a-acetoxy-3-((1E,3E)-5-((2-(bis(2-hydroxyethyl)amino)ethyl)amino)-4-methyl-5-oxopenta-1,3-dien-1-yl)-3-methyl-1-oxo-3,4,4a,5,6,9-hexahydro-1H-4,9a-ethanocyclohepta[c]pyran-7-carboxylate] the activity at 10 µM [1, 3] was 134 ± 5% and the mrna remaining at 10 µM [2, 4] was 72.2 ± 10.2%.

In the case of `COC(=O)C1=CC[C@@]23CC[C@@H]([C@@](C)(/C=C/C=C(\C)C(=O)O[C@@H]4O[C@H](CO)[C@@H](O)[C@H](O)[C@H]4O)OC2=O)[C@@]3(OC(C)=O)CC1` [compound 7, reference compound], the activity at 10 µM [1, 3] is reported as 307 ± 36.2%, the mrna remaining at 10 µM [2, 4] is reported as 21.2 ± 13% and the cell viability (Raw264.7 cells) is reported as “only a minimal reduction in cell viability”.

`CC(=O)O[C@]12CCC(C)=CC[C@]13CC[C@H]2[C@@](C)(/C=C/C=C(\C)C(=O)O[C@@H]1O[C@H](CO)[C@@H](O)[C@H](O)[C@H]1O)OC3=O` [compound 5, reference compound] was tested, and the activity at 10 µM [1, 3] was 158 ± 17.2% and the mrna remaining at 10 µM [2, 4] was 16.2 ± 9.2%.

For “(2E,4E)-5-((3R,4S,4aS,9aR)-4a-acetoxy-7-(methoxycarbonyl)-3-methyl-1-oxo-3,4,4a,5,6,9-hexahydro-1H-4,9a-ethanocyclohepta[c]pyran-3-yl)-2-methylpenta-2,4-dienoic acid [compound 15]”, the “NOS2 mRNA Relative Expression (%)” value [1] was 130.3 ± 5.8% and the “ARG1 mRNA Relative Expression (%)” value [2] was 18.7 ± 18.0%.
